Conditions: Liquid, Vibrating wire viscometry

FC(F)(F)/C=C/Cl [(E)-1-chloro-3,3,3-trifluoroprop-1-ene]
Conditions | viscosity [mPa·s]
243.14 K, 5000 kPa | 0.5536
243.15 K, 200 kPa | 0.5325
243.15 K, 1000 kPa | 0.542
243.15 K, 10000 kPa | 0.5859
243.15 K, 20000 kPa | 0.6281
243.15 K, 30000 kPa | 0.6899
243.15 K, 40000 kPa | 0.7324
253.14 K, 20000 kPa | 0.5583
253.15 K, 200 kPa | 0.4733
253.15 K, 1000 kPa | 0.4782
253.15 K, 5000 kPa | 0.4887
253.15 K, 10000 kPa | 0.5179
253.15 K, 30000 kPa | 0.6008
253.15 K, 40000 kPa | 0.6521
263.14 K, 200 kPa | 0.4168
263.15 K, 1000 kPa | 0.4194
263.15 K, 5000 kPa | 0.433
263.15 K, 10000 kPa | 0.455
263.15 K, 20000 kPa | 0.4998
263.15 K, 30000 kPa | 0.539
263.16 K, 40000 kPa | 0.5767
273.14 K, 30000 kPa | 0.4792
273.15 K, 200 kPa | 0.3733
273.15 K, 1000 kPa | 0.3741
273.15 K, 5000 kPa | 0.3892
273.15 K, 10000 kPa | 0.4091
273.15 K, 20000 kPa | 0.4448
273.15 K, 40000 kPa | 0.5197
283.14 K, 200 kPa | 0.3347
283.14 K, 10000 kPa | 0.3688
283.15 K, 1000 kPa | 0.3363
283.15 K, 5000 kPa | 0.351
283.15 K, 20000 kPa | 0.4033
283.15 K, 30000 kPa | 0.4368
283.15 K, 40000 kPa | 0.4708
293.14 K, 20000 kPa | 0.3656
293.14 K, 40000 kPa | 0.428
293.15 K, 200 kPa | 0.3004
293.15 K, 1000 kPa | 0.3033
293.15 K, 5000 kPa | 0.316
293.15 K, 10000 kPa | 0.3332
293.15 K, 30000 kPa | 0.3971
303.15 K, 200 kPa | 0.2719
303.15 K, 1000 kPa | 0.2743
303.15 K, 5000 kPa | 0.2874
303.15 K, 10000 kPa | 0.3033
303.15 K, 20000 kPa | 0.3337
303.15 K, 30000 kPa | 0.3635
303.16 K, 40000 kPa | 0.393
313.15 K, 300 kPa | 0.2464
313.15 K, 10000 kPa | 0.2767
313.15 K, 20000 kPa | 0.3058
313.15 K, 30000 kPa | 0.3337
313.15 K, 40000 kPa | 0.3611
313.16 K, 1000 kPa | 0.2489
313.16 K, 5000 kPa | 0.2611
323.14 K, 40000 kPa | 0.3345
323.15 K, 400 kPa | 0.2243
323.15 K, 1000 kPa | 0.2267
323.15 K, 5000 kPa | 0.2393
323.15 K, 10000 kPa | 0.254
323.15 K, 20000 kPa | 0.2819
323.15 K, 30000 kPa | 0.3084
333.15 K, 500 kPa | 0.2047
333.15 K, 1000 kPa | 0.2069
333.15 K, 5000 kPa | 0.2192
333.15 K, 10000 kPa | 0.2344
333.15 K, 20000 kPa | 0.262
333.15 K, 30000 kPa | 0.2888
333.15 K, 40000 kPa | 0.3147
343.14 K, 30000 kPa | 0.2702
343.14 K, 40000 kPa | 0.2946
343.15 K, 600 kPa | 0.1887
343.15 K, 1000 kPa | 0.1903
343.15 K, 5000 kPa | 0.2029
343.15 K, 10000 kPa | 0.2179
343.15 K, 20000 kPa | 0.245
353.14 K, 10000 kPa | 0.1999
353.14 K, 30000 kPa | 0.2503
353.15 K, 5000 kPa | 0.1846
353.15 K, 20000 kPa | 0.2277
353.15 K, 40000 kPa | 0.2733
363.15 K, 5010 kPa | 0.1701
363.15 K, 10000 kPa | 0.1845
363.15 K, 20000 kPa | 0.2107
363.15 K, 40000 kPa | 0.257
363.16 K, 30000 kPa | 0.2345
373.14 K, 40000 kPa | 0.2449
373.15 K, 5000 kPa | 0.1581
373.15 K, 10000 kPa | 0.1734
373.15 K, 20000 kPa | 0.1996
373.15 K, 30000 kPa | 0.2229
